US20230323358A1, “COMPOSITION AND USE OF siRNAs AGAINST VEGFR2 AND TGF-BETA1 IN COMBINATION THERAPY FOR CANCER” (Sirnaomics, Inc., priority 2021, published 2023)
Read-outs that look alike come from different tables or passages of the source. Oligonucleotides are written 5' to 3', each unit as a sugar letter and its base; * is a phosphorothioate linkage, no mark a phosphodiester; rarer units and linkages stand in square brackets, end groups in braces. Plain capitals give the bases only. {P} = phosphate; d = 2'-deoxy (DNA); m = 2'-O-methyl; r = 2'-OH (RNA); f = 2'-fluoro

Columns and labels:
[1] = test system: B 16-F0 cells; experiment: In vivo pharmacodynamics on melanoma (B16) in immunocompetent mouse model; settings: positive control, 4 mg/kg i.p. QW
Method: The STP355 drug used in this example is the STP355 drug prepared in Example 9. C57BL/6J mice were inoculated with B 16-F0 cells subcutaneously on the back, inoculation volume: 1×10^6/100 µL/mice, 50 mice were inoculated, location: the right back of the mice. The average tumor volume was 80~100 mm^3 and started to be administered in groups. The dose of 2 mg/kg was administered intravenously, twice a week, for a total of 8 administrations, and the positive control group was administered with cisplatin, […], A total of 8 doses were administered.

[2] = test system: TGF-β1; experiment: EC50 of TGF-β1 siRNA candidates before and after modification, knockdown in cells; format: cell-based, human
Method: DLD-1, RKO, U87-MG and PANC-1 cells were seeded into 24-well cell plates (1 × 10^5/well), and then siRNAs (21mer or negative control) were transfected with commercial transfection reagent (lipo2000). The siRNA transfection concentration was 100 nM. Untreated cells were set as a blank control. Total RNA was extracted from cells 24 h after transfection. Reverse transcription was performed using the kit to obtain cDNA according to the manufacturer’s instructions. Relative levels of target gene TGF- β1 mRNA expression were determined by real-time PCR, normalized to the housekeeping gene β-actin. Gene knockdown effectiveness was expressed as a percentage of the blank control. […] Therefore, TF1-21-hm3# and TF1-21-hm6# were selected as candidate sequences, and these two sequences were modified (see Table 4 for modified sequences).
The EC50 of candidate sequences before and after modification in different cells (U87-MG, DLD-1, SK-Hep-1, BxPC3, A549, HUCCT, PANC-1 and RKO) were compared. U87-MG, DLD-1, SK-Hep-1, BxPC3, A549, HUCCT, PANC-1 and RKO cells were seeded in 24-well cell plates (1 × 10^5/well) and transfected with multiple concentration gradients in different cells for siRNA candidates (modified or unmodified), use the same procedure as for primary screening. Finally, the data were plotted using the software GraphPad Prism8 and EC50 values were calculated.

[3] = test system: TGF-β1; experiment: as above; format: cell-based; settings: 293T cells, homo, 24h, 24well (second TGF-β1 table)
[4] = test system: MC38-hPDL1 cells; experiment: In vivo pharmacodynamics on humanized PDL1 locus colorectal cancer tumors (MC38-hPDL1) in immunocompetent mice; set-up: species or system C57BL/6J mice; settings: positive control 4mpk, BIW*4W, I.P.
Method: The STP355 drug used in this example is the STP355 drug prepared in Example 9. C57BL/6J mice were subcutaneously inoculated with humanized PDL1 locus colorectal cancer tumor MC38-hPDL1 cells on the back, inoculation volume: 1×10^6/100 µL/mouse, inoculation location: above the right thigh of the mouse. When the average tumor volume reached 100 mm^3, group administration was started, divided into 4 groups, 8 animals/group. In this experiment, the doses of 4 mg/kg and 6 mg/kg were tested, and a model group was established, and the positive control group Tecentrip (atezolizumab) . The drug was administered twice a week for a total of 8 times. On the 0th, 3rd, 7th, 10th, 14th, 17th, 21st, 24th and 28th days, the tumor volume was measured with a vernier caliper, and the tumor growth inhibition rate TGI% was calculated according to the formula.
Calculation formula: TGI % = [1-(Ti-T0)/ (Vi-V0)] ×100%. • Ti represents the mean tumor volume of the treatment group at a certain time point, • T0 represents the mean tumor volume of the treatment group on day 0, • Vi represents the mean tumor volume of the model group at the same time point as Ti, • V0 represents the mean tumor volume of the model group at day 0.

[5] = A549 cells, homo, 24 h, 24well (Table 6), read-out: EC50 (nM, 24 h, 24well) A549
[6] = BxPC3 cells, homo, 24 h, 24well (Table 6), read-out: EC50 (nM, 24 h, 24well) BxPC3
[7] = RKO cells, homo, 24 h, 24well (Table 6), read-out: EC50 (nM, 24 h, 24well) RKO
[8] = SK-Hep1 cells, homo, 24 h, 24well (Table 6), read-out: EC50 (nM, 24 h, 24well) SK-Hep1
[9] = U87MG cells, homo, 24 h, 24well (Table 6), read-out: EC50 (nM, 24 h, 24well) U87MG
[10] = Hucct cells, homo, 24h, 24well (second TGF-β1 table), read-out: EC50 (24h, nM, 24well) Hucct
[11] = A549 cells, homo, 24h, 24well (second TGF-β1 table), read-out: EC50 (24h, nM, 24well) A549
[12] = DLD-1 cells, homo, 24 h, 24well (Table 6), read-out: EC50 (nM, 24 h, 24well) DLD-1
[13] = PANC-1 cells, homo, 24 h, 24well (Table 6), read-out: EC50 (nM, 24 h, 24well) PANC-1
[14] = RKO cells, homo, 24h, 24well (second TGF-β1 table), read-out: EC50 (24h, nM, 24well) RKO
[15] = DLD-1 cells, Homo, 24h, 24well (second TGF-β1 table), read-out: EC50 (24h, nM, 24well) DLD-1
[16] = Hucct cells, homo, 24 h, 24well (Table 6), read-out: EC50 (nM, 24 h, 24well) Hucct
[17] = PANC-1 cells, homo, 24h, 24well (second TGF-β1 table), read-out: EC50 (24h, nM, 24well) PANC -1
[18] = U87MG cells, homo, 24h, 24well (second TGF-β1 table), read-out: EC50 (24h, nM, 24well) U87M G

Compound	EC50 [2, 5] [nM]	EC50 [2, 6] [nM]	EC50 [2, 7] [nM]	EC50 [2, 8] [nM]	EC50 [2, 9] [nM]	EC50 [3] [nM]	EC50 [2, 10] [nM]	EC50 [2, 11] [nM]	EC50 [2, 12] [nM]	EC50 [2, 13] [nM]	EC50 [2, 14] [nM]	EC50 [2, 15] [nM]	EC50 [2, 17] [nM]	EC50 [2, 18] [nM]	other results
N.N.[Cl][Pt][Cl] [cisplatin]	–	–	–	–	–	–	–	–	–	–	–	–	–	–	anti-tumor effect [1]: significant anti-tumor effects
TF1-21-hm6#mod: Modified (2′F, 2′OME, phosphorylation) siRNA targeting TGF-β1; sense SEQ ID 148, antisense SEQ ID 152 (sense mCmGmGmCmAmGfCfUfGmUmAmCmAmUmUmGmAmCmUdTdT; antisense {P}-mAfGmUmCmAmAmUmGmUmAmCmAmGfCmUmGmCmCmGdTdT)	0.22	0.01	0.04	0.59	0.09	0.1	–	–	–	–	–	–	–	–	–
TF1-20190711-1#: siRNA targeting TGF-β1 mRNA; sense SEQ ID 1, antisense SEQ ID 2 (sense GCAGAGUACACACAGCAUATT; antisense UAUGCUGUGUGUACUCUGCTT; sugars from the 5' end r19 d2, backbone not given here)	–	–	–	–	–	0.08	0.002	–	–	–	–	–	–	–	EC50 ([2]; SK-Hep 1 cells, homo, 24h, 24well (second TGF-β1 table), read-out: EC50 (24h, nM, 24well) SK-Hep 1): 1.6 nM
TF1-20190711-1#mod: Modified siRNA targeting TGF-β1; sense SEQ ID 149, antisense SEQ ID 153 (sense GCAGAGUACACACAGCAUATT; antisense UAUGCUGUGUGUACUCUGCTT; sense: sugars from the 5' end m6 f3 m10 d2, backbone not given here; antisense: sugars from the 5' end mfmmmmmmmmmmmfmmmmmdd, 5' {P}, backbone not given here)	–	–	–	–	–	0.25	–	–	–	–	–	–	–	–	–
TF1-21-hm3#mod: Modified (2′F, 2′OME, phosphorylation) siRNA targeting TGF-β1; sense SEQ ID 147, antisense SEQ ID 151 (sense mAmAmCmUmAmUfUfGfCmUmUmCmAmGmCmUmCmCmAdTdT; antisense {P}-mUfGmGmAmGmCmUmGmAmAmGmCmAfAmUmAmGmUmUdTdT)	0.04	0.17	0.08	2.64	1.48	–	–	0.04	0.02	0.02	0.08	–	–	–	–
TF1-21-hm6#: siRNA targeting TGF-β1 mRNA; sense SEQ ID 26, antisense SEQ ID 36 (sense CGGCAGCUGUACAUUGACUTT; antisense AGUCAAUGUACAGCUGCCGTT; sugars from the 5' end r19 d2, backbone not given here)	3.02	0.03	0.05	0.22	0.12	0.11	0.007	3	0.85	12.7	0.048	0.9	12.7	0.1	EC50 [2, 16]: 0.01 nM
atezolizumab [Tecentrip]	–	–	–	–	–	–	–	–	–	–	–	–	–	–	tumor weight versus model group [4]: significantly lower than the model group; tumor volume versus model control group ([4]; day 7 to day 28): significantly smaller than that of the model control group
TF1-21-hm3#: siRNA targeting TGF-β1 mRNA; sense SEQ ID 23, antisense SEQ ID 33 (sense AACUAUUGCUUCAGCUCCATT; antisense UGGAGCUGAAGCAAUAGUUTT; sugars from the 5' end r19 d2, backbone not given here)	1.36	0.25	0.1	3.16	0.29	–	0.029	1.4	0.15	6.65	0.1	0.2	6.6	0.3	EC50 ([2]; BxPC 3 cells, homo, 24h, 24well (second TGF-β1 table), read-out: EC50 (24h, nM, 24well) BxPC 3): 11.9 nM; EC50 [2, 16]: 0.03 nM
TF1-21-hm7#: siRNA targeting TGF-β1 mRNA; sense SEQ ID 27, antisense SEQ ID 37 (sense GGCAGCUGUACAUUGACUUTT; antisense AAGUCAAUGUACAGCUGCCTT; sugars from the 5' end r19 d2, backbone not given here)	–	–	–	–	–	–	0.031	0.1	–	–	0.1	0.7	12	0.6	–
